Assay results published in US10245261B2, “Substituted indol-5-ol derivatives and their therapeutic applications” (NantBioScience, Inc., priority 2013, dated 2019).

Assays:
KDR(h) = KDR(h) (Homo sapiens, UniProt P35968); test: KinaseProfiler kinase assay; assay type: biochemical
Abl(h) = Abl(h) (Homo sapiens, UniProt P00519); test: KinaseProfiler kinase assay; assay type: biochemical
[1] = tested on: human MIAPaCa-2 pancreatic carcinoma xenograft; test: Pancreatic carcinoma xenograft in athymic nude mice; assay type: in vivo, mouse; conditions: MIAPaCa-2 xenograft, nude mice, single agent
Experimental: The objective of the third study was to evaluate antitumor activities of novel multiple-kinase inhibitor NTW-3475 in human MIAPaCa-2 pancreatic carcinoma xenograft in athymic nude-Faxn1 mice.
Four animals were randomly assigned to study groups. Each animal was weighed, and then injected subcutaneously in the left and right flank area with 0.1 ml of 5.0×10^7 MIAPaCa-2 cells per mL.
Each test or control animal was on a 5-day on, two-day off for two cycles treatment schedule with negative control vehicle, positive control Abraxane at 20 mg/kg or 25, 50 mg/kg of NTW-3475. Tumor growth was measured with a digital hand held caliper twice weekly (once tumor emerges) prior to the first dosing and then two to three times weekly until euthanized.
The objective of the third study was to evaluate antitumor activities of novel multiple-kinase inhibitor Compound 10, 11, 12, 53, 68, 82, 83, 88, and 90 in human MIAPaCa-2 pancreatic carcinoma xenograft in athymic nude-Faxn1 mice.
Each test or control animal was on a 5-day on, two-day off for three cycles treatment schedule with negative control vehicle or 40 mg/kg of Compound 10, 11, 12, 53, 68, 82, 83, 88 and 90. Tumor growth was measured with a digital hand held caliper twice weekly (once tumor emerges) prior to the first dosing and then two to three times weekly until euthanized.

Flt3(h) = biological target: T1, Flt3(h) (Homo sapiens, UniProt P36888); test: KinaseProfiler kinase assay; assay type: biochemical
T1 sequence (P36888 27-993): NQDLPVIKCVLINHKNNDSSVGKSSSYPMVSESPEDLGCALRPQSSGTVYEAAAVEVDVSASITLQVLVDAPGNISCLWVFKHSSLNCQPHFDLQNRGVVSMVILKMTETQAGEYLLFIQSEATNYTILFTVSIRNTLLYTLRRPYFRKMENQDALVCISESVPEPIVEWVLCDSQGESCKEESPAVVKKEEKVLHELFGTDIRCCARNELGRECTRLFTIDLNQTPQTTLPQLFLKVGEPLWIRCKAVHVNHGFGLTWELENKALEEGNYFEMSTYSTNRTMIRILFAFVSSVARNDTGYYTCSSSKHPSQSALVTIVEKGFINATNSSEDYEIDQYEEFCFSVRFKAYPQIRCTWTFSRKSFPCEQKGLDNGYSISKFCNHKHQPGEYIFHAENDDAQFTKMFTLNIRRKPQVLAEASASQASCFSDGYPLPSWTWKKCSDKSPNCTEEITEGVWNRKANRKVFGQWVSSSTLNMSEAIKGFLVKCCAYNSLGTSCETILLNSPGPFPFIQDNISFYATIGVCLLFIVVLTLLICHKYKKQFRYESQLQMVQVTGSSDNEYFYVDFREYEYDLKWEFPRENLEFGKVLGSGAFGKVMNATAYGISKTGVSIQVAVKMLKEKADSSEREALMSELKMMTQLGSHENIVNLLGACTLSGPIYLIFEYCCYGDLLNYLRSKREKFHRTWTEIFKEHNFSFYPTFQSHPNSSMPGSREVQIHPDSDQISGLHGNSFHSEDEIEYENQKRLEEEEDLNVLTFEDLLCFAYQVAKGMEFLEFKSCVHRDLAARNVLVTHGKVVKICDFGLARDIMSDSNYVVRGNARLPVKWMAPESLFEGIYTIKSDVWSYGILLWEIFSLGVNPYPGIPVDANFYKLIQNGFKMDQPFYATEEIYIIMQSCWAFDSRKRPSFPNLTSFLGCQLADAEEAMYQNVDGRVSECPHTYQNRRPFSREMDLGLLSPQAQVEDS
Experimental: (§1) This example tests the inhibitory properties of representative compounds of the invention in c-Src kinase, Aurora-A kinase, Flt3 kinase, Ret kinase and TrkA Kinase assays (see, Daniele Fancelli et al, J. Med. Chem., 2006, 49 (24), pp 7247-7251). The KinaseProfiler™ Service Assay Protocols (Millipore) was used to test the kinase inhibiting activity of novel compounds from this invention. To do this, the buffer composition was as: 20 mM MOPS, 1 mM EDTA, 0.01% Brij-35, 5% Glycerol, 0.1% β-mercaptoethanol, 1 mg/mL BSA. Test compounds were initially dissolved in DMSO at the desired concentration, then serially diluted to the kinase assay buffer. In a final reaction volume of 25 μL, Aurora-A(h) (5-10 mU) is incubated with 8 mM MOPS pH 7.0, 0.2 mM EDTA, 200 μM LRRASLG (Kemptide), 10 mM MgAcetate and [γ^33P-ATP]. The reaction was initiated by the addition of the MgATP mix. After incubation for 40 minute at room temperature, the reaction was stopped by addition of 5 μL of a 3% phosphoric acid solution. 10 μL of the reaction was then spotted onto a P30 filtermat and washed three times for 5 minutes in 50 mM phosphoric acid and once in methanol prior to drying and scintillation counting. Wells containing substrate but no kinase and wells containing a phosphopeptide control were used to set 0% and 100% phosphorylation value, respectively.
(§2) The Kinase Hotspot℠ kinase assay was also used to test the compounds for IC50 or % inhibitions (Reaction Biology Corp.). Inhibitory IC50 values were determined by titration of compound at the optimal kinase concentration (Kinase EC50).

cSRC(h) = cSRC(h) (Homo sapiens, UniProt P12931); test: KinaseProfiler kinase assay; assay type: biochemical
cSRC(h), sequence (P12931 whole entry): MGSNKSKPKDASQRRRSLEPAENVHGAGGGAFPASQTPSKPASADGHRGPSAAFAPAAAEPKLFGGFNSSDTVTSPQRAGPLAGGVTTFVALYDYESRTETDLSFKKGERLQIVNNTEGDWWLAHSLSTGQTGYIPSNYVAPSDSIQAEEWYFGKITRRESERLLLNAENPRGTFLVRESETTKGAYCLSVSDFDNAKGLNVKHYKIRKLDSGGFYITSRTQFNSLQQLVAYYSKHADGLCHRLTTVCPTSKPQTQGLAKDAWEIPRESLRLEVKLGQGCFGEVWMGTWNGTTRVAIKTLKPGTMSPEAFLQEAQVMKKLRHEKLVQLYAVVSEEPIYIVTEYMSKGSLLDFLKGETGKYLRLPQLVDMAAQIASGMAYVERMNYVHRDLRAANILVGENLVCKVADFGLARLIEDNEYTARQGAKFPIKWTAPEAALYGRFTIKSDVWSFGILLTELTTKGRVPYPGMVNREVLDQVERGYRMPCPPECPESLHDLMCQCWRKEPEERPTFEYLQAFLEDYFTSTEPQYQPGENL
Experimental: as §1, §2

Aurora-A(h) = biological target: T2, Aurora-A(h) (Homo sapiens, UniProt O14965); test: KinaseProfiler kinase assay; assay type: biochemical; conditions: for inhibition at 1 µM: read-out: % Inhibition @1 μM Auroro-A
T2 sequence (O14965 1-403): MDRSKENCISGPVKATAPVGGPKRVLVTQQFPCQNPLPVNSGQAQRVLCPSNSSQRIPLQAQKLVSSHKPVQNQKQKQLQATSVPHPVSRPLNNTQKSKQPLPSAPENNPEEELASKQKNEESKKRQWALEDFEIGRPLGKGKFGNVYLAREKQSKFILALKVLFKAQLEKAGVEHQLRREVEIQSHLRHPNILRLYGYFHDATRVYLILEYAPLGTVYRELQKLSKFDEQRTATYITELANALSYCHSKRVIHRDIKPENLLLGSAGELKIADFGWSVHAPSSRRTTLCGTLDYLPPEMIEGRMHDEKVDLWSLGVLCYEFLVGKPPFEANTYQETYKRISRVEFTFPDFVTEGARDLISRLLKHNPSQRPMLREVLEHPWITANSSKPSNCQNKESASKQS
Experimental: as §1, §2

Ret(h) = Ret(h) (Homo sapiens, UniProt P07949); test: KinaseProfiler kinase assay; assay type: biochemical
Ret(h), sequence (P07949 29-1114): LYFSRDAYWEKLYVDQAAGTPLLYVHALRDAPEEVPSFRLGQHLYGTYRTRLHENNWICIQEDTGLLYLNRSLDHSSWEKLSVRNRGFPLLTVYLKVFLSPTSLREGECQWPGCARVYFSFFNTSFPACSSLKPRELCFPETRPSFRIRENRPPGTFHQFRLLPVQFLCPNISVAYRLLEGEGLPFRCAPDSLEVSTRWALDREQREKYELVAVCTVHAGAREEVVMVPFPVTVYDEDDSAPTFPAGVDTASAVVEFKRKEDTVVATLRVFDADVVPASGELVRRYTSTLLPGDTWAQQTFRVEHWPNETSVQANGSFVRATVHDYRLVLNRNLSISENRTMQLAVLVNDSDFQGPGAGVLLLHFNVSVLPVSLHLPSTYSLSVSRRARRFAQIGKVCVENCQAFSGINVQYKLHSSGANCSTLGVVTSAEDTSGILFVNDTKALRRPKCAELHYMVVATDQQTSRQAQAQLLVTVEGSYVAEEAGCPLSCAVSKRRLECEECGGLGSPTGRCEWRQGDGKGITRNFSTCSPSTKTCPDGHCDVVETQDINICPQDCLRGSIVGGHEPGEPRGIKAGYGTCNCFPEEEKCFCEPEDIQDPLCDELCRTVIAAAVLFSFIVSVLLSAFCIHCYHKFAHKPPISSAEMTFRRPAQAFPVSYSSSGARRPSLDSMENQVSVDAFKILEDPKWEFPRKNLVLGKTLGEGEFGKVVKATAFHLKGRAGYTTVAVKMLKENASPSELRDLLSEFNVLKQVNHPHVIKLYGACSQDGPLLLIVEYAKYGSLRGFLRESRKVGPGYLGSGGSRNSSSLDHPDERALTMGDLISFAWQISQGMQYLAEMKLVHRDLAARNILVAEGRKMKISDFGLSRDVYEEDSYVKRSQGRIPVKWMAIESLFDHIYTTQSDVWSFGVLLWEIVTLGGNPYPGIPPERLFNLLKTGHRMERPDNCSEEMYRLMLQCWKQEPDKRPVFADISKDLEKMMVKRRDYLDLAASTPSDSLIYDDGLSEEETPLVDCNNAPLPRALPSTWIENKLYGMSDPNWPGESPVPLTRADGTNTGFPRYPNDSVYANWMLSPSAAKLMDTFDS
Experimental: as §1, §2

MV4.11 = test: CellTiterBlue cell growth inhibition; assay type: cell-based; conditions: Homo sapiens; MV4.11, 72 hours
Experimental: (§3) This example illustrated the proliferating cell growth inhibition of selected compounds from this invention. To do this, the cells were seeded into fresh Iscove's growth medium at a density of 0.4e6 cells/ml and grown in log phase for 24 hr. Cells were then resuspended in their fresh respective growth media at 0.1e^6 cells/ml and plated into 384 well black, clear-bottom microplates at 36 ul/well. Test compounds and controls were initially dissolved in DMSO at the desired concentration, then serially diluted to the assay buffer. These solutions were added and cells were incubated for 72 hours at 37° C. CellTiterBlue (Promega cat# G7572) was added on the Beckman FX. Plates were returned to the 37° C. CO2 incubator for 4 hr and then fluorescence was determined on the Victor plate reader. Data were processed using Microsoft Excel, and GI50 values were generated using Prism (GraphPad Software, San Diego, Calif.).

KU812 = test: CellTiterBlue cell growth inhibition; assay type: cell-based; conditions: Homo sapiens; KU812, 72 hours
Experimental: as §3

RS4.11 = test: CellTiterBlue cell growth inhibition; assay type: cell-based; conditions: Homo sapiens; RS4.11, 72 hours
Experimental: as §3

K562 = test: CellTiterBlue cell growth inhibition; assay type: cell-based; conditions: Homo sapiens; K562, 72 hours
Experimental: as §3

KDR(h), sequence (P35968 20-1356): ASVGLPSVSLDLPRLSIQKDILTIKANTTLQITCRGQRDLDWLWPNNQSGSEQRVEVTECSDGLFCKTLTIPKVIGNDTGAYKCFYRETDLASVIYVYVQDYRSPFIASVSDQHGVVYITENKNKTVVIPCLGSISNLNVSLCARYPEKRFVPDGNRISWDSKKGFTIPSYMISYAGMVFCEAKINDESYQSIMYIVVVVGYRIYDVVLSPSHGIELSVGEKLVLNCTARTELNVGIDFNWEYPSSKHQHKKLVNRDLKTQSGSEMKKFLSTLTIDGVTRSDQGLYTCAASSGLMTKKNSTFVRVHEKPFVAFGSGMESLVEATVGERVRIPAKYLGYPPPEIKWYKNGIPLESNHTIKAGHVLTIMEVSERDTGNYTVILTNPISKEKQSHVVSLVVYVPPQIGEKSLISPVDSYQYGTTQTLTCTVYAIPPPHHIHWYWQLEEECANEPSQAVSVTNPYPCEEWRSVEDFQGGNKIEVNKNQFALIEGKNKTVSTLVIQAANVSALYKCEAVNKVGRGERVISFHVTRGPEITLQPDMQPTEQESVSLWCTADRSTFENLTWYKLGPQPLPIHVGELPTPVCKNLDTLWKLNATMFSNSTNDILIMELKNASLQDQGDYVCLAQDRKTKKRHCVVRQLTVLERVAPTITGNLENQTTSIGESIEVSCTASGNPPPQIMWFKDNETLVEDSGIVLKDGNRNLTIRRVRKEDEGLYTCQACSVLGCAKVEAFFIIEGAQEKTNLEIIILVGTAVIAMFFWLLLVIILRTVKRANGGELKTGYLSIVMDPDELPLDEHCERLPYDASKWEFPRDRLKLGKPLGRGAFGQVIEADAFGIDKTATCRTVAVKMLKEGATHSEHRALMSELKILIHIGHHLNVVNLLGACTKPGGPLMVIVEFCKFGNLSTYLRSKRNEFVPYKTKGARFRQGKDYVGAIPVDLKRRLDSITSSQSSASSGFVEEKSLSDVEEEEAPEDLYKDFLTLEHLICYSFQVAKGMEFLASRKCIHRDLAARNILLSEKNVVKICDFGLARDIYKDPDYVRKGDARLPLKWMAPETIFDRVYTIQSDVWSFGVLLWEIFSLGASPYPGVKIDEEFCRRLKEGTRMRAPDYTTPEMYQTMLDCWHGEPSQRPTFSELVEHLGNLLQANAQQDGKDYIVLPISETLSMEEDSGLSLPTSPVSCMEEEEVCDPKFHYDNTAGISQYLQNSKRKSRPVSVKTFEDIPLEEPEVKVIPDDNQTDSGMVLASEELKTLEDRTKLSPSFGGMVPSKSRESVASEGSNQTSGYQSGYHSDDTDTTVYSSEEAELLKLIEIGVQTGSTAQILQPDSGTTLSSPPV
Abl(h), sequence (P00519 whole entry): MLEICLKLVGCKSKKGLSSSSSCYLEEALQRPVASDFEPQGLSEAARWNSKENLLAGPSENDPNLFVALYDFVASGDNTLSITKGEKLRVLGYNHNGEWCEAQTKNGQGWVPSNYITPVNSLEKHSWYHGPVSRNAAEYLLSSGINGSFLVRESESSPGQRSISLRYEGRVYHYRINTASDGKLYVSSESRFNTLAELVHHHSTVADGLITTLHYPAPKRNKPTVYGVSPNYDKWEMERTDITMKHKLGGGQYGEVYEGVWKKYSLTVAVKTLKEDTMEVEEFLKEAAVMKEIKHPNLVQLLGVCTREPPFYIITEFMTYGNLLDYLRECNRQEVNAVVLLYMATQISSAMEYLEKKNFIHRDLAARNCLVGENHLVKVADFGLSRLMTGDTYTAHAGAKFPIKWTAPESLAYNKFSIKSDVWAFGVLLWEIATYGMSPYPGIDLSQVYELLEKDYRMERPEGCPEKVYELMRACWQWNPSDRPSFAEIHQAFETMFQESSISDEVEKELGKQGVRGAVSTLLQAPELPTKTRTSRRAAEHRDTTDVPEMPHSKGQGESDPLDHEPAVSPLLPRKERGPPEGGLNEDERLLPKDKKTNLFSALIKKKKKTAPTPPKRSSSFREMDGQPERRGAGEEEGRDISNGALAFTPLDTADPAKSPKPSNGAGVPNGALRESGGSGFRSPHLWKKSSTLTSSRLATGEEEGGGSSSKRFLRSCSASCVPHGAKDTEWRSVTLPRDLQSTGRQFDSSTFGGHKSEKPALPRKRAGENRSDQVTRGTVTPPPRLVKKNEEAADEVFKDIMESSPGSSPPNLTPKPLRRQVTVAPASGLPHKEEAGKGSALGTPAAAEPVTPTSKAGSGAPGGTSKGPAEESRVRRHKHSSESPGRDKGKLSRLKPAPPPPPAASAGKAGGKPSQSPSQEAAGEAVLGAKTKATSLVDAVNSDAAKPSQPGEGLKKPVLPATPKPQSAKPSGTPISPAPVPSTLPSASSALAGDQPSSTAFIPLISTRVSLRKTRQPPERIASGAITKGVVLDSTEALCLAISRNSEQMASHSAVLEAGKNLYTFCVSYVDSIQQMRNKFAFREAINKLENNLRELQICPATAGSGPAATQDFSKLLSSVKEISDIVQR

Row | inhibition at 1 µM (KDR(h)) | inhibition at 1 µM (Abl(h)) | IC50 (Abl(h); read-out: IC50 (nM) Abl (h)) | inhibition at 1 µM (Flt3(h)) | IC50 (Flt3(h); read-out: IC50 (nM) Flt3 (h)) | inhibition at 1 µM (cSRC(h)) | IC50 (cSRC(h); read-out: IC50 (nM) cSrc (h)) | inhibition at 1 µM (Aurora-A(h)) | IC50 (Aurora-A(h); read-out: IC50 (nM) Auroro-A (h)) | inhibition at 1 µM (Ret(h)) | IC50 (Ret(h); read-out: IC50 (nM) Ret (h)) | GI50 (MV4.11) | GI50 (RS4.11) | GI50 (K562) | SMILES | anti-tumor effect [1] | GI50 (KU812)
1 | 96% | 112% | 0.5 nM | 100% | 0.3 nM | 100% | 2 nM | 100% | 2 nM | 101% | 1 nM | 0.41 nM | 3.22 nM | 0.28 nM | Cc1cc2c(F)c(Oc3nc(Nc4cc(C5CC5)[nH]n4)cc(N4CCN(CCO)CC4)n3)ccc2[nH]1 [Compound 12] | strong anti-tumor effect | 0.27 nM
2 | 95% | 110% |  | 99% |  | 101% |  | 98% |  | 102% |  |  |  |  | C/C=C/c1cc(Nc2cc(N3CCC(OC)CC3)nc(Oc3cc(F)c4[nH]c(C)cc4c3F)n2)n[nH]1 [Compound 96] |  | 
3 | 96% | 111% |  | 100% |  | 100% |  | 98% |  | 102% |  |  |  |  | C/C=C/c1cc(Nc2cc(N3CCN(S(C)(=O)=O)CC3)nc(Oc3cc(F)c4[nH]c(C)cc4c3F)n2)n[nH]1 [Compound 98] |  | 
4 | 91% | 113% |  | 102% |  | 103% |  | 101% |  | 102% |  |  |  |  | C/C=C/c1cc(Nc2cc(N3CCN(CC)CC3)nc(Oc3cc(F)c4[nH]c(C)cc4c3F)n2)n[nH]1 [Compound 99] |  | 
5 | 91% | 113% |  | 99% |  | 96% |  | 97% |  | 101% |  |  |  |  | CCN1CCN(c2cc(Nc3cc(C)[nH]n3)nc(Oc3cc(F)c4[nH]c(C)cc4c3F)n2)CC1 [Compound 103] |  | 
6 | 91% | 112% |  | 99% |  | 96% |  | 98% |  | 101% |  |  |  |  | Cc1cc(Nc2cc(N3CCN(CCO)CC3)nc(Oc3cc(F)c4[nH]c(C)cc4c3F)n2)n[nH]1 [Compound 105] |  | 
7 | 95% | 109% |  | 99% |  | 98% |  | 97% |  | 98% |  |  |  |  | Cc1cc(Nc2cc(N3CCNCC3)nc(Oc3cc(F)c4[nH]c(C)cc4c3F)n2)n[nH]1 [Compound 106] |  | 
8 | 90% | 111% |  | 98% |  | 96% |  | 95% |  | 99% |  |  |  |  | Cc1cc(Nc2cc(N3CCOCC3)nc(Oc3cc(F)c4[nH]c(C)cc4c3F)n2)n[nH]1 [Compound 107] |  | 
9 | 91% | 113% |  | 102% |  | 104% |  | 100% |  | 102% |  |  |  |  | C/C=C/c1cc(Nc2cc(N3CCN(C)CC3)nc(Oc3ccc4[nH]c(C)cc4c3Cl)n2)n[nH]1 [Compound 112] |  | 
10 | 91% | 115% |  | 101% |  | 104% |  | 101% |  | 101% |  |  |  |  | C/C=C/c1cc(Nc2cc(N3CCN(C)CC3)nc(Oc3ccc4c(cc(C)n4C)c3F)n2)n[nH]1 [Compound 120] |  | 
11 | 92% | 116% |  | 102% |  | 104% |  | 91% |  | 102% |  |  |  |  | C/C=C/c1cc(Nc2cc(N3CCOCC3)nc(Oc3ccc4c(cc(C)n4C)c3F)n2)n[nH]1 [Compound 121] |  | 
12 | 91% | 109% |  | 102% |  | 104% |  | 101% |  | 101% |  |  |  |  | Cc1cc2c(F)c(Oc3nc(Nc4cc(C5CC5)[nH]n4)cc(N4CCN(C)CC4)n3)ccc2n1C [Compound 122] |  | 
13 | 88% | 114% |  | 101% |  | 104% |  | 100% |  | 102% |  |  |  |  | Cc1cc2c(F)c(Oc3nc(Nc4cc(C5CC5)[nH]n4)cc(N4CCOCC4)n3)ccc2n1C [Compound 123] |  | 
